Results on two compounds are retold here after PubChem BioAssay (NCI).

Test in all cases: NCI-60 cell line screen, 48 h
For assay [1], the system named is CAKI-1 renal.
For assay [2], the system named is EKVX NSCLC.
Assay [3] concerns HCC-2998 colon.
In assay [4] the test system is HOP-62 NSCLC.
The test system of assay [5] is HOP-92 NSCLC.
Assay [6] relates to HT29 colon.
The test system of assay [7] is IGROV1 ovarian.
Assay [8] has as its system M14 melanoma.
Assay [9] concerns NCI-H226 lung.
The subject of assay [10] is OVCAR-5 ovarian.
For assay [11], the system named is SK-MEL-28 melanoma.
Assay [12] concerns SK-OV-3 ovarian.
Assay [13] deals with SR leukemia.
Assay [14] deals with UO-31 renal.

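Five compound concentrations were applied to cells in 96-well plates for 48 hours; endpoints were derived by simple linear interpolation of the resulting dose-response curve. Here, GI50 denotes the concentration required for 50% inhibition of growth. TGI: total growth inhibition.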

`O=C(N/N=C/c1cc(Br)cc(Br)c1[O-])c1ccccc1O.O=C(N/N=C/c1cc(Br)cc(Br)c1[O-])c1ccccc1O.[Zn+2]`: the TGI in [1] is 7.29 µM; in assay [2], 10.9 µM; in assay [3] it was 3.42 µM; in assay [4], 4.5 µM; in assay [5], 5.09 µM; in assay [6], 12.3 µM. Besides, the TGI stood at 5.55 µM in [7]; 8.3 µM in assay [8]; 3.19 µM in [9]; 13.1 µM in [10]; 11.5 µM in assay [11]; 8.49 µM in [12]. Moreover, the TGI came out at 4 µM in assay [13] and 10.6 µM in assay [14].

For the compound `C/C(=N\NC(=O)c1ccccc1O)c1cccc(/C(C)=N/NC(=O)c2ccccc2O)n1.O=S(=O)([O-])[O-].[Fe+2]`, the GI50 in [1] was greater than 100 µM; in assay [7], 47.7 µM; in assay [9], greater than 100 µM; in assay [10] it was greater than 100 µM; in assay [11], greater than 100 µM; in assay [14], greater than 100 µM. Moreover, the TGI in assay [1], in [2], in [3], in assay [4], in assay [5] and in assay [6] was greater than 100 µM in each case. For the same compound, the TGI in assay [7], in assay [8], in assay [9], in [10], in [11] and in assay [12] was greater than 100 µM in each case. The TGI in assay [13] and in assay [14] was greater than 100 µM throughout.
